Where two headings read alike, the source gives them in different places.
Tests used:
[1] = tested on: HCV replicon; assay: Anti-HCV replicon assay (EC50, luciferase readout); assay type: cell-based, hepatitis C virus; details: Hepatitis C virus, human hepatoma Huh-7 cell line harbouring a HCV replicon, 3 days incubation, luciferase signal
Experimental: (§1) The anti HCV activity of specifically substituted pteridine derivatives was tested in a human hepatoma Huh-7 cell line harbouring a HCV replicon. The assay comprised the following steps:
(§2) Step 1: compound preparation and serial dilution involved the following alternatives, depending upon the water solubility of pteridine derivative being tested:
(§3) • 1. with respect to water soluble pteridine derivatives, 500 μL of solution in cell media (DMEM, 10% FBS, P/S, L-Glutamine) was prepared with a concentration that is twice the concentration of the starting final serial dilution concentration. 150 μL of the solution was added to the pre-specified wells in column 1 of a 96-well cell culture plate (PerkinElmer, white plate, cat. #6005181, for EC50 assay; black plate, cat. #6005182 for CC50 assay). The rest of the plate, i.e. columns 2-12, was filled with 100 μL of cell media. The plate was then placed on a Precision 2000 Workstation in order to start serial dilution. Pteridine compounds were diluted three times each step from column 1 to column 10. Column 11 was used as a blank control (no pteridine compound added). • 2. With respect to poorly water soluble pteridine derivatives, DMSO was used as a solvent, and serial dilution was performed in 50% DMSO in water, in a 384-well plate. A solution containing the relevant compound at 100-fold the concentration of the starting final serial dilution concentration was prepared in 50% DMSO in water and added to the pre-specified wells in column 1 of a polypropylene 384-well plate. This plate was then placed on a Precision 2000 Workstation in order to start serial dilution. After serial dilution, 2 μL of the solution was transferred from the 384-well plate to a 96-well cell culture plate containing 100 μL of cell media on a Biomek FX Workstation. The DMSO concentration in the final assay condition was 0.5% after cells have been added to the plate and the total volume in each well was brought to 200 μL. Step 2: to each well of the serial dilution plate prepared in step 1, 100 μL of cell media containing 6000 suspended Huh-7 HCV replicon cells was added with a Multidrop workstation. Plates were incubated for 3 days at 37° C. with 5% CO2. Step 3: detection: • 1) with respect to the EC50 assay, the media in a 96-well cell culture plate was aspirated with a Biotek EL405 plate-washer. A volume of 200 μL of a solution containing a 1:1 mixture of a cell-lysis buffer (commercially available from Promega, Luciferase Cell Culture Lysis 5X Reagent, cat. #E1531) and a luciferase substrate solution (commercially available from Promega, Luciferase Assay, cat. #E4550) was added to each well of the plate with Multidrop. The plate was incubated for 30 minutes at room temperature before the luminescence signal was measured with a TopCount plate-reader. • 2) with respect to the CC50 assay, 100 μL of a pre-mixed CellTiter-Glo (commercially available from Promega, cat. #G7572) solution was added directly to the cell culture in each well of the plate and the luminescence signal was measured with a TopCount plate-reader after 10 minutes of incubation at room temperature.
(§4) Results are expressed by the following data: • the 50% effective concentration (EC50), i.e. the concentration that protects 50% of the cell monolayer from virus-induced cythopathic effect. • the 50% cytostatic concentration (CC50), i.e. the concentration that results in 50% inhibition of cell growth.

[2] = CC50 assay (CellTiter-Glo) in Huh-7 HCV replicon cells; assay type: cell-based, human; details: human, 3 days incubation, 50% cytostatic concentration
Experimental: as §1, §2, §3, §4

Compound Nc1nc(N2CCOCC2)c2nc(-c3cccnc3)cnc2n1 [Example 108, 4-morpholino-6-(pyridin-3-yl)pteridin-2-ylamine] has an EC50 ([1]; 72 h, read-out: EC50) of 0.3 to 1 µM and a CC50 at 3 days [2] of 10 to 20 µM.

Work on Nc1nc(N2CCOCC2)c2nc(-c3cccnc3F)cnc2n1 [Example 109, 6-(2-fluoropyridin-3-yl)-4-morpholino-pteridin-2-ylamine] yielded an EC50 ([1]; Huh-7, 72 h) of 1 to 10 µM and a CC50 at 3 days [2] of 10 to 20 µM.

Nc1nc(N2CCOCC2)c2nc(-c3ccsc3)cnc2n1 [Example 110, 4-morpholino-6-(thiophen-3-yl)pteridin-2-ylamine] showed an EC50 ([1]; 72 h, read-out: EC50) of 1 to 10 µM and a CC50 at 3 days [2] greater than 20 µM.

Compound Nc1nc(N2CCOCC2)c2nc(-c3ccoc3)cnc2n1 [Example 111, 6-(furan-3-yl)4-morpholinopteridin-2-ylamine] has an EC50 ([1]; Huh-7, 72 h) of 1 to 10 µM and a CC50 at 3 days [2] greater than 20 µM.

For Nc1nc(N2CCOCC2)c2nc(-c3ccn[nH]3)cnc2n1 [Example 112, 4-morpholino-6-(1H-pyrazol-5-yl)pteridin-2-ylamine], the EC50 ([1]; 72 h, read-out: EC50) was 1 to 10 µM and the CC50 at 3 days [2] was greater than 20 µM.

In the case of CNC(=O)c1ccc(-c2cnc3nc(N)nc(N4CCOCC4)c3n2)cc1 [Example 114, 4-(2-amino-4-morpholinopteridin-6-yl)-N-methylbenzamide], the EC50 ([1]; 72 h, read-out: EC50) is reported as 1 to 10 µM and the CC50 at 3 days [2] is reported as greater than 20 µM.

In the case of Cc1cc(F)ccc1-c1cnc2nc(N)nc(N3CCOCC3)c2n1 [Example 120, 6-(4-fluoro-2-methylphenyl)-4-morpholinopteridin-2-ylamine], the EC50 ([1]; 72 h, read-out: EC50) is reported as 1 to 10 µM and the CC50 at 3 days [2] is reported as 10 to 20 µM.

With Nc1nc(N2CCOCC2)c2nc(-c3ccc(C(F)(F)F)cc3Cl)cnc2n1 [Example 121, 6-(2-chloro-4-(trifluoromethyl)phenyl)-4-morpholinopteridin-2-ylamine] the EC50 ([1]; 72 h, read-out: EC50) was 1 to 10 µM and the CC50 at 3 days [2] was 10 to 20 µM.

For Nc1nc(N2CCOCC2)c2nc(-c3cc4ccccc4s3)cnc2n1 [Example 123, 6-(benzo[b]thiophen-2-yl)-4-morpholinopteridin-2-ylamine], the EC50 ([1]; Huh-7, 72 h) was 0.3 to 1 µM and the CC50 at 3 days [2] was less than 10 µM.

Work on CCOc1cccc(-c2cnc3nc(N)nc(N4CCOCC4)c3n2)c1 [Example 126, 6-(3-ethoxyphenyl)-4-morpholinopteridin-2-ylamine] yielded an EC50 ([1]; 72 h, read-out: EC50) of 1 to 10 µM and a CC50 at 3 days [2] of 10 to 20 µM.

Nc1nc(N2CCOCC2)c2nc(-c3ccc(Cl)s3)cnc2n1 [Example 127] gave an EC50 ([1]; Huh-7, in Homo sapiens, 72 h) of 0.3 to 1 µM and a CC50 at 3 days [2] of less than 10 µM.

In the case of COC(=O)Nc1ccc(-c2cnc3nc(N)nc(N4CCOCC4)c3n2)cc1 [Example 129, methyl 4-(2-amino-4-morpholinopteridin-6-yl)phenylcarbamate], the EC50 ([1]; 72 h, read-out: EC50) is reported as less than 0.3 µM and the CC50 at 3 days [2] is reported as less than 10 µM.

Work on COc1ccc(-c2cnc3nc(N)nc(N4CCOCC4)c3n2)cn1 [Example 130, 6-(6-methoxypyridin-3-yl)-4-morpholinopteridin-2-ylamine] yielded an EC50 ([1]; 72 h, read-out: EC50) of 1 to 10 µM and a CC50 at 3 days [2] greater than 20 µM.

Nc1nc(N2CCOCC2)c2nc(-c3cc4ccccc4o3)cnc2n1 [Example 133, 6-(benzofuran-2-yl)-4-morpholinopteridin-2-ylamine] gave an EC50 ([1]; 72 h, read-out: EC50) of 0.3 to 1 µM and a CC50 at 3 days [2] greater than 20 µM.

Nc1nc(N2CCOCC2)c2nc(-c3ccc4c(c3)CC(=O)N4)cnc2n1 [Example 136, 5-(2-amino-4-morpholinopteridin-6-yl)indolin-2-one] showed an EC50 ([1]; 72 h, read-out: EC50) of 1 to 10 µM and a CC50 at 3 days [2] of 10 to 20 µM.

With CC(C)C(=O)Nc1ccc(-c2cnc3nc(N)nc(N4CCOCC4)c3n2)cc1 [Example 137, N-(4-(2-amino-4-morpholinopteridin-6-yl)phenyl)isobutyramide] the EC50 ([1]; 72 h, read-out: EC50) was less than 0.3 µM and the CC50 at 3 days [2] was 10 to 20 µM.

CC(C)(C)C(=O)Nc1ccc(-c2cnc3nc(N)nc(N4CCOCC4)c3n2)cc1 [Example 138, N-(4-(2-amino-4-morpholinopteridin-6-yl)phenyl)pivalamide] gave an EC50 ([1]; 72 h, read-out: EC50) of 1 to 10 µM and a CC50 at 3 days [2] of 10 to 20 µM.

C[C@H](NC(=O)OC(C)(C)C)C(=O)Nc1ccc(-c2cnc3nc(N)nc(N4CCOCC4)c3n2)cc1 [Example 140, (S)-tert-butyl 1-(4-(2-amino-4-morpholinopteridin-6-yl)phenylamino)-1-oxopropan-2-ylcarbamate] showed an EC50 ([1]; 72 h, read-out: EC50) of 1 to 10 µM and a CC50 at 3 days [2] of less than 10 µM.
